The subject of test [1] is BALB/c male mice. Briefly: Dexamethasone-induced muscle atrophy, forced oral administration test, gastrocnemius weight/body weight ratio. As to conditions: 200 mg/kg QG or equivalent amount of quercetin in terms of rutin, with DEX 10 mg/L in drinking water, compared to the DEX group, FIG. 3. Format: in vivo. The protocol:
BALB/c male mice aged 7 weeks were habituated for one week, and then allowed to ingest 10 mg/L dexamethasone (DEX) in drinking water ad libitum. Next, 200 mg/kg quercetin glycoside (QG) and an equivalent amount of quercetin (Q) in terms of rutin were each suspended in milliQ water containing 0.5% carboxymethyl cellulose sodium salt, and the suspensions were each forcibly administered orally […] to the mice for five days (from Monday to Friday). Then, administration of 10 mg/L DEX in drinking water was started from Friday. In the next week, forced oral QG/Q administration was resumed (from Monday to Thursday) concurrently with DEX administration in drinking water, and the mice were dissected on Friday. Sample collection after the administration test, muscle atrophy evaluation based on gastrocnemius weight (GW)/body weight (BW) ratio, and gene expression level analysis in gastrocnemius tissue were performed according to the procedures described in Examples 1 and 2. The differences in average gene expression levels between the DEX group and each of the DEX+QG group and the DEX+Q group were analyzed by Dunnett's test, with p-values below 5% being considered significant.

Test [2] deals with MuRF-1. The test can be described thus: MuRF-1 expression in gastrocnemius tissue, forced oral administration test. Format: in vivo, mice. As to conditions: 200 mg/kg QG or equivalent amount of quercetin, with DEX 10 mg/L in drinking water, compared to the DEX group, FIG. 4. The protocol:
(§1) Thereafter, for the purpose of a detailed analysis of the molecular mechanisms, the expression of genes involved in muscle atrophy in gastrocnemius tissue was analyzed. RNA was extracted from the cryopreserved gastrocnemius samples using ISOGEN (Nippon Gene Co., Ltd.) and the RNeazy Mini Kit (Qiagen). Then, cDNA synthesis was conducted using the High-Capacity cDNA Reverse Transcriptional Kits (Applied biosystems). Based on the constructed cDNAs, the messenger RNA (mRNA) levels of the muscle atrophy-related genes (Atrogin-1, MuRF-1, Foxo1, Redd1, and Mstn) and the control gene (18SrRNA) were determined by quantitative reverse transcription PCR using the TaqMan Fast Universal PCR Master Mix (Applied biosystems). The values obtained were expressed as mean±standard deviation. The differences in average gene expression levels between the DEX group and each of the DEX+QG groups were analyzed by Student's t-test, with p-values below 5% being considered significant. BALB/c male mice aged 7 weeks were habituated for one week, and then allowed to ingest 10 mg/L dexamethasone (DEX) in drinking water ad libitum. […] The differences in average gene expression levels between the DEX group and each of the DEX+QG group and the DEX+Q group were analyzed by Dunnett's test, with p-values below 5% being considered significant.

The test system of test [3] is Foxo1. The test can be described thus: Foxo1 expression in gastrocnemius tissue, forced oral administration test. Format: in vivo, mice. As to conditions: 200 mg/kg QG or equivalent amount of quercetin, with DEX 10 mg/L in drinking water, compared to the DEX group, FIG. 4. As to the method:
as §1

For test [4], the system named is Redd1. Briefly: Redd1 expression in gastrocnemius tissue, forced oral administration test. Format: in vivo, mice. As to conditions: 200 mg/kg QG or equivalent amount of quercetin, with DEX 10 mg/L in drinking water, compared to the DEX group, FIG. 4. As to the method:
as §1

Molecules are shown by their SMILES.

On to `O=c1c(O)c(-c2ccc(O)c(O)c2)oc2cc(O)cc(O)c12` [quercetin], for which the “GW/BW ratio (gastrocnemius weight divided by body weight)” value in test [1] is recorded as “not effective in improving the GW/BW ratio”. Moreover, in test [2], the “expression of MuRF-1 increased by DEX administration” value was “not effective in inhibiting the expression”. Further, in test [3], the “expression of Foxo1 increased by DEX administration” value is “not effective in inhibiting the expression”. For the same compound, in test [4], the “expression of Redd1 increased by DEX administration” value was “not effective in inhibiting the expression”.

Source of the values: US20170042924A1, “MUSCLE ATROPHY INHIBITOR CONTAINING QUERCETIN GLYCOSIDE” (SUNTORY HOLDINGS LIMITED, priority 2014, published 2017).
